The source of these data is patent US20070043122A1, “Use of 2,2,3,3, tetramethylcyclopropane carboxylic acid derivatives for treating psychiatric disorders” (YISSUM RESEARCH DEVELOPMENT CO. OF THE HEBREW UNIVERSITY OF …, priority 2003, published 2007).

For one data set, the target named is T1, human brain MIP synthase (Homo sapiens, UniProt Q9NPH2).
T1 construct: supernatant fraction obtained after sonication; from tissue; host or cells: postmortem human prefrontal cortex, 9,000 x g supernatant of sonicated homogenate
T1 sequence (Q9NPH2 1-558): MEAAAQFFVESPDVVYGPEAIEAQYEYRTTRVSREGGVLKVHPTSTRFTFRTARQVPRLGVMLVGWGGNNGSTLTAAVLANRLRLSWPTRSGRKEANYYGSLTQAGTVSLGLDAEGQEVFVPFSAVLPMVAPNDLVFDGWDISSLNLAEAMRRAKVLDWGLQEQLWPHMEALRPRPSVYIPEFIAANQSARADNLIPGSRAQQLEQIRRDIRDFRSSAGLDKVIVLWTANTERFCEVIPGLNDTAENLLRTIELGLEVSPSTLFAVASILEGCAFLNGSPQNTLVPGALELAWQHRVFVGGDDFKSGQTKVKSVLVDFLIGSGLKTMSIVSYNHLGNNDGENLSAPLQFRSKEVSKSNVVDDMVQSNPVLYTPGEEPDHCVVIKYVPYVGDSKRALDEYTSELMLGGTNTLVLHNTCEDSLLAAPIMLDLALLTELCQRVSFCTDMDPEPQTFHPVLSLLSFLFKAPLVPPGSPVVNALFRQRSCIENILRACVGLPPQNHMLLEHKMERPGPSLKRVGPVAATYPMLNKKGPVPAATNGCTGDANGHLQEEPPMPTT
The data set can be described thus: Human brain MIP synthase activity in postmortem prefrontal cortex homogenate. The class given is biochemical. Particulars: for Ki: human brain homogenate; for inhibited MIP synthase activity (which of the other psychotropic drugs): at concentrations 1.5 times greater than their upper therapeutic range (concentrations in Table 2). On the procedure:
Human brain MIP synthase activity. Five μl of the supernatant fraction obtained after sonication (Ultrasonic Processor, Newtown, Conn., 15 sec at 0.1 output watts at 4° C.) and centrifugation for 20 min at 9,000×g at 4° C. of postmortem human prefrontal cortex (1 mg wet weight in 0.5 ml of 50 mM Tris HCl, pH 7.4) were added to 20 μl reaction mixture containing 4 mM D-glucose-6-phosphate, 1.25 μCi D-glucose-6-phosphate [^14C], 1.6 mM NAD^+, 0.45 mM KCl, 5.4 mM MgCl2 and 0.9 mM Tris HCl, pH 7.6, with or without 5 mU IMPase (Sigma, St. Louis). Incubation with or without various drugs concentrations (table 2 and table 3) was carried out for 3 hours (within the linear range) at 37° C. The reaction was stopped by adding 50 μl cold double distilled water (ddH20). Seventy out of the 80 μl were added to test tubes containing 1.25 g strong basic anion resin (Amberjet 4200, Rohm and Haas, Philadelphia) in 1 ml ddH2O. The mixtures were vortexed for 10 min, then centrifugated for 10 min at 10,000×g at room temperature, and 200 μl supernatant taken for ^14C counting (Liquid Scintillation Counter, Kontron, Basel). The enzymatic activity was calculated by subtracting values without IMPase from the measures with IMPase. The measurements were carried out in triplicate.
Table 2 details the drugs and their concentrations compared with their therapeutic concentrations, studied for possible inhibition of human brain MIP synthase activity. Each drug was tested twice, each experiment in triplicate.

Data set [1] concerns neural tube defects (NTDs). The following applies: in vivo; cited from earlier work.
Data set [2] deals with whole brain inositol levels. Put plainly: Whole brain inositol levels in mice after chronic VPA administration. The following applies: for mice whole brain inositol levels: means ± S.E.M. The class given is in vivo. On the procedure:
(§1) Animals. The study was approved by the Ben-Gurion University (Beer Sheva, Israel) Institutional Review Committee for the Use of Animals, and the procedures were carried out in compliance with the declaration of the National Institute of Health Guide for care and use of laboratory animals [Council N R, editor. Guide for the care and use of laboratory animals. Washington, D.C.: National Academy Press; 1996]. […] J Neurochem 1999; 72(2):879-82] which approximate therapeutically-relevant plasma levels. […] Prog Neurobiol 1999; 58(1):31-59]. One saline-injected group was sacrificed right after the injection. All other four groups were sacrificed one hour after the injection. Frontal cortex was removed from all mice right after sacrifice and frozen (−70° C.) till further processing. […] Mice of group II (n=13, controls) were injected saline (IP) twice a day. Animals were then sacrificed, brain removed and dealt as above.
Gas chromatographic measurement of brain inositol levels. Mouse brain free inositol levels were analyzed as trimethylsilyl (TMS) derivatives by gas-liquid chromatography (GC), as described in Shapiro J et al [Shapiro J, Belmaker R H, Beigon A, Seker A, Agam G. Scyllo-Inositol in Post-Mortem Brain of Suicide Victims, Bipolar, Unipolar and Schizophrenic Patients. J Neural Transm 2000; 107: 603-607] using a capillary column. […] Replicate reliability was tested in rat brain. […] Each sample extract was assayed at least in duplicate. The results presented are the average of the replicates. Assays were performed in a blind and balanced design such that each run included samples from all comparison groups.

The subject of data set [3] is frontal cortex inositol levels. Put plainly: Frontal cortex inositol levels in mice after a single dose of VPA (gas chromatography). Particulars: acute, single IP dose 300, 600, 800 mg/kg, sacrificed one hour after injection; all concentrations tested. The class given is in vivo. The method, then: as §1
Gas chromatographic measurement of brain inositol levels. Mouse brain free inositol levels were analyzed as trimethylsilyl (TMS) derivatives by gas-liquid chromatography (GC), as described in Shapiro J et al [Shapiro J, Belmaker R H, Beigon A, Seker A, Agam G. Scyllo-Inositol in Post-Mortem Brain of Suicide Victims, Bipolar, Unipolar and Schizophrenic Patients. J Neural Transm 2000; 107: 603-607] using a capillary column. […] Replicate reliability was tested in rat brain. […]

The conditions of data set [4]: 400 mg/kg/day IP twice daily for 9 or 28 days; cited from earlier work.
Another data set concerns the target T2, IMPase (Homo sapiens, UniProt P29218).
T2 sequence (P29218 1-277): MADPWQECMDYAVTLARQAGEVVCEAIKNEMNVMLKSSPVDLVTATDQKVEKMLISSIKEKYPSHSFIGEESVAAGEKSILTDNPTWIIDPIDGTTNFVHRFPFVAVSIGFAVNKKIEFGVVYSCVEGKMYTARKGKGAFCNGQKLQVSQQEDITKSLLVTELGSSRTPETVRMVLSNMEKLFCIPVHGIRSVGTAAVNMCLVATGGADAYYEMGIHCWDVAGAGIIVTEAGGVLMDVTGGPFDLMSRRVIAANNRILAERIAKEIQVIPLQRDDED
The following applies: cited from earlier work.

Data set [5] relates to growth cones of newborn rat dorsal root ganglia (DRG) cells. The following applies: reversed by addition of myo-inositol; cited from earlier work.
Another data set deals with growth cones of rat DRGs. The data set can be described thus: Growth cone spreading in rat neuron DRG explants. The following applies: 1 mM, 24 hour exposure. In kind it is cell-based. The method, then: Rat neuron DRG (dorsal root ganglia) explants. […] After 24 hours for attachment, cytosine β-arabinofuranoside (ara-C, 10 μM) was added for 24 hours to kill non-neuronal cells. […] The explants were then fixed in 4% paraformaldehyde in PBS (Phosphate buffered saline) for 20 minutes at room temperature. Growth cones were analysed on an inverted microscope (Zeiss Axiovert) and measured using an NIH Image software.

Like-named read-outs stand apart in the source and are kept apart here.

For `CNC(=O)C1C(C)(C)C1(C)C` [M-TMCD, N-methyl-2,2,3,3-tetramethylcyclopropanecarboxamide], the inhibition at 1300 µM on human brain MIP synthase (read-out: Inhibition of human brain MIP synthase activity) was 93%. In addition, the teratogenicity entry in data set [1] is “lack of teratogenicity”.
For `CCCC(CCC)C(=O)O` [VPA, valproic acid], the “mice whole brain inositol levels” value in data set [2] (IP injection of VPA twice a day, 400-800 mg/kg/day, fourteen days) is 27.9 ± 3.2; in data set [2] (VPA in drinking water (12.5 g/liter) for 11 days) it was 30.1 ± 1.7. The “effect of chronic VPA on brain inositol levels” value in data set [2] (eleven days in drinking water or 14 days IP injection) is “did not deplete brain inositol levels”. In data set [3], the “reduction in frontal cortex inositol concentration” value worked out at 20%. Moreover, the inhibition at 1000 µM at human brain MIP synthase (1.0 mM) was 100%. In addition, the Ki is 210 µM on human brain MIP synthase (read-out: Ki for MIP synthase (Dixon's plot)) and 240 µM on human brain MIP synthase (read-out: Ki for MIP synthase (Lineweaver-Burk plot)). Moreover, the “blood VPA levels” value in data set [4] is 0.27 ± 0.02 mM. Further, at IMPase, the “effect on IMPase activity” value is on record as “no effect”. Further, the “effect on spreading of growth cones of newborn rat DRG cells” value in data set [5] is “increased spreading”.
As for `CCCC(CCC)C(N)=O` [VPD, valpromide], the “effect on growth cone spreading of DRGs” value in the data set with growth cones of rat DRGs is “no increased growth cone spreading”. Besides, the inhibition at 1400 µM on human brain MIP synthase (1.4 mM) was 34%.
Turning to `NC(=O)N1c2ccccc2C=Cc2ccccc21` [carbamazepine], on human brain MIP synthase, the “inhibited MIP synthase activity (which of the other psychotropic drugs)” value (“inhibited MIP synthase activity” for short) was “None”. Further, the “effect on spreading of growth cones of newborn rat DRG cells” value in data set [5] is “increased spreading”.
Turning to `CN(C)CCCN1c2ccccc2Sc2ccc(Cl)cc21` [chlorpromazine], on human brain MIP synthase, the “inhibited MIP synthase activity” value is on record as “None”.
On to `CN(C)CCCN1c2ccccc2CCc2ccc(Cl)cc21` [clomipramine], for which the “inhibited MIP synthase activity” value against human brain MIP synthase is given as “None”.
For `O=C(CCCN1CCC(O)(c2ccc(Cl)cc2)CC1)c1ccc(F)cc1` [haloperidol], on human brain MIP synthase, the “inhibited MIP synthase activity” value is “None”.
In the case of `CN(C)CCCN1c2ccccc2CCc2ccccc21` [imipramine], the “inhibited MIP synthase activity” value on human brain MIP synthase is “None”.
`O=C1NC(=O)C(c2ccccc2)(c2ccccc2)N1` [phenytoin]: the “inhibited MIP synthase activity” value on human brain MIP synthase is on record as “None”.

A word on the inhibition: it is the share of the control response that was lost under treatment. As usually defined, the Ki is the dissociation constant of the complex between target and ligand, obtained from inhibition or displacement.
